# Measurements reported in patent US20050209157A1, “Short bioactive peptides and methods for their use” (priority 2001, published 2005).
# No end group written: not given here.
# Experiments:
# WI38 = conditions: MTT, 24 hours with peptide; normal fibroblast line
# in vitro [1] = conditions: human, WI38 normal lung fibroblast cells, LD50 WI38, WI38 normal lung fibroblast line, MTT, 24 hours with peptide
# SW480 = test: Anti-cancer assay, MTT, LD50; assay type: cell-based; conditions: SW480 colon adenocarcinoma line, 24 hours with peptide
# Excerpt: (§1) Numbers are LD50 values (μg/mL).
# PC3 = test: Anti-cancer assay, MTT, LD50; assay type: cell-based; conditions: 24 hours with peptide, prostate adenocarcinoma
# Excerpt: as §1
# BMKC = test: Anti-cancer assay, MTT, LD50; assay type: cell-based; conditions: BMKC cloned melanoma line, 24 hours with peptide
# Excerpt: as §1
# H1299 = test: Anti-cancer assay, MTT, LD50; assay type: cell-based; conditions: 24 hours with peptide, lung large cell carcinoma
# Excerpt: as §1
# HeLaS3 = test: Anti-cancer assay, MTT, LD50; assay type: cell-based; conditions: 24 hours with peptide, cervical carcinoma
# Excerpt: as §1
# MCF7 = test: Anti-cancer assay, MTT, LD50; assay type: cell-based; conditions: MCF7 breast adenocarcinoma line, MTT, 24 hours with peptide
# Excerpt: as §1
# [2] = test system: yeast (Saccharomyces cerevisiae); test: Antimicrobial assay I, yeast assay in RPMI 1640; assay type: cell-based; conditions: RPMI 1640 media
# Procedure: (§2) The data for the following antimicrobial assay of the peptides have been obtained by making OD measurements in in vitro cell culture experiments with and without added peptide. The protocol used is as follows.
# (§3) Absorbance was read at 620 nm after shaking to resuspend cells.
# The yeast assay was performed in RPMI 1640 media (pH 7.0 at 25° C.).
# (§4) Staph6538 is Staphylococcus aureus ATCC accession number 6538; paerug9027 is Pseudomonas aeruginosa ATCC accession number 9027, yeast is Saccharomyces cerevisiae.
# in vitro [3] = assay type: cell-based, human; conditions: human, human red blood cells, pH 7, hemolytic assay, concentration at 50% hemolysis, 1 hour at 37° C.; read-out: LD50
# Procedure: This hemolytic assay is based upon that presented in Journal of Peptide Research 53: 82-90 (1999). […] All procedures were performed according to safety protocols pertaining to the handling and disposal of human body fluids.
# Red blood cells (RBCs) were washed three times with PBS (35 mM phosphate buffer 0.15 M NaCl, pH 7.0). RBCs suspended in PBS (0.4% (v/v); about 10 ml per 15 peptides) were prepared. Suspensions (100 μl) were aliquoted to each sample and control tube. Serially diluted peptide solutions (100 μl) were pipetted into the sample tubes. Negative control tubes contained 100 μl PBS; positive control tubes contained 100 μl 1% Triton-X100 detergent. All tubes were incubated for 1 hour at 37° C. The tubes were removed from the incubator and centrifuged at 1000 g for 5 minutes. Supernatant (100 μl) was pipetted to a 96-well polyvinyl chloride plate. The absorbance at 414 nm (A414) was measured, and used to calculate the percent hemolysis according to the following formula. [formula]
# [4] = test system: Pseudomonas aeruginosa ATCC 9027; test: Antimicrobial assay I, MIC by OD measurement; assay type: cell-based; conditions: 37° C. for 24 hours, absorbance 620 nm
# Excerpt: as §2
# (§5) Cell lines included Staphylococcus aureus ATCC 6538 or 25923, Pseudomonas aeruginosa ATCC 9027 or 27853. Medium used were Antibiotic Medium 3 (Difco), Antibiotic Medium 2 (Difco), and 0.85% saline. Controls used were physiological saline, and gentamycin at 50, 25, 10, 5, 1, and 0.1 ppm.
# as §3, §4
# [5] = test system: Staphylococcus aureus ATCC 6538; test: Antimicrobial assay I, MIC by OD measurement; assay type: cell-based; conditions: 37° C. for 24 hours, absorbance 620 nm
# Excerpt: as §2, §5, §3, §4
Compound,WI38 LD50 (WI38),CC50 at 24 h (in vitro [1]),LD50 SW480 (SW480),PC3 LD50 (PC3),LD50 BMKC (BMKC),H1299 LD50 (H1299),HeLaS3 LD50 (HeLaS3),LD50 MCF7 (MCF7),yeast (MIC or MFC) [2],HC50 at 1 h (in vitro [3]),paerug9027 (MIC) [4],staph6538 (MIC) [5]
KWKLAKKALALL-NH2 [P142],73 µg/mL,73 µg/mL,38 µg/mL,60 µg/mL,38 µg/mL,115 µg/mL,55 µg/mL,44 µg/mL,100 µg/mL,900 µg/mL,50 µg/mL,100 µg/mL
VAKLLAKLAKKLL-NH2 [P48],41 µg/mL,41 µg/mL,47 µg/mL,32 µg/mL,43 µg/mL,17 µg/mL,44 µg/mL,23 µg/mL,25 µg/mL,200 µg/mL,5 µg/mL,5 µg/mL
FAKLWAKLAFGKGIGKVGKKLL-NH2 [P135],110 µg/mL,110 µg/mL,80 µg/mL,310 µg/mL,155 µg/mL,115 µg/mL,215 µg/mL,54 µg/mL,50 µg/mL,900 µg/mL,10 µg/mL,15 µg/mL
FAKLLAKLAKAKL-NH2 [P65],320 µg/mL,320 µg/mL,345 µg/mL,470 µg/mL,250 µg/mL,450 µg/mL,210 µg/mL,475 µg/mL,200 µg/mL,950 µg/mL,50 µg/mL,15 µg/mL
"FALALKALKKAL-NH2 [P144, FALALKALKKAL-NH2]",750 µg/mL,750 µg/mL,285 µg/mL,350 µg/mL,250 µg/mL,225 µg/mL,275 µg/mL,150 µg/mL,50 µg/mL,600 µg/mL,50 µg/mL,5 µg/mL
FKRLAKIKVLRLAKIKR-NH2 [P147],83 µg/mL,83 µg/mL,185 µg/mL,340 µg/mL,110 µg/mL,93 µg/mL,> (> indicates greater than 1000),106 µg/mL,200 µg/mL,300 µg/mL,5 µg/mL,5 µg/mL
"FALALKLAKKAL-NH2 [P167, FALALKLAKKAL-NH2]",260 µg/mL,260 µg/mL,360 µg/mL,320 µg/mL,240 µg/mL,300 µg/mL,325 µg/mL,230 µg/mL,100 µg/mL,200 µg/mL,25 µg/mL,10 µg/mL
FAKKLAKKLKKLAKKLAKKWKL-NH2 [P70],34 µg/mL,34 µg/mL,11 µg/mL,82 µg/mL,94 µg/mL,63 µg/mL,28 µg/mL,44 µg/mL,100 µg/mL,80 µg/mL,> (> indicates greater than 200 μg/mL),10 µg/mL
"CC(C)C[C@H](NC(=O)[C@H](C)NC(=O)[C@H](CCCCN)NC(=O)[C@H](CC(C)C)NC(=O)[C@H](C)NC(=O)[C@H](CC(C)C)NC(=O)[C@H](C)NC(=O)[C@H](CCCCN)NC(=O)[C@H](CC(C)C)NC(=O)[C@H](C)NC(=O)[C@H](CC(C)C)NC(=O)[C@H](C)NC(=O)[C@H](CC(C)C)NC(=O)[C@H](CCCCN)NC(=O)[C@H](C)NC(=O)[C@H](CC(C)C)NC(=O)[C@H](CCCCN)NC(=O)[C@H](CCCCN)NC(=O)[C@H](C)NC(=O)[C@H](CC(C)C)NC(=O)[C@H](CCCCN)NC(=O)[C@H](CCCCN)NC(=O)[C@H](CC(C)C)NC(=O)[C@H](CCCCN)NC(=O)[C@H](CCCCN)NC(=O)[C@H](C)NC(=O)[C@H](CC(C)C)NC(=O)[C@H](CCCCN)NC(=O)[C@H](CCCCN)NC(=O)[C@H](C)NC(=O)[C@@H](N)Cc1ccccc1)C(N)=O [P98, reference compound]",47 µg/mL,47 µg/mL,125 µg/mL,52 µg/mL,94 µg/mL,53 µg/mL,175 µg/mL,96 µg/mL,> (> indicates greater than 200 μg/mL),60 µg/mL,> (> indicates greater than 200 μg/mL),> (> indicates greater than 200 μg/mL)
FAKLLAKLAK-NH2 [P123],600 µg/mL,600 µg/mL,> (> indicates greater than 1000),> (> indicates greater than 1000),635 µg/mL,> (> indicates greater than 1000),940 µg/mL,615 µg/mL,100 µg/mL,1000 µg/mL,200 µg/mL,50 µg/mL
"WALAL-NH2 [P184, WALAL-NH2]",800 µg/mL,800 µg/mL,440 µg/mL,570 µg/mL,600 µg/mL,370 µg/mL,302 µg/mL,260 µg/mL,100 µg/mL,850 µg/mL,100 µg/mL,25 µg/mL
